Assay results taken from US10624968B2, “Compounds for treating cancer” (Bicycle Therapeutics Limited, priority 2017, dated 2020).
Where two headings read alike, the source gives them in different places. Non-standard residues stand in square brackets, D forms with d. Residues, ends and D or L forms follow the SMILES beside them. *: point of attachment. Dolaproine = CO[C@@H]([C@@H]1CCCN1)[C@@H](C)C(=O)O; Dil = CC[C@H](C)[C@H](NC)[C@@H](CC(=O)O)OC; X1 = C[C@@H](N*)[C@@H](O)c1ccccc1; NMeV = CN[C@H](C(=O)O)C(C)C

Assays:
[1] = test system: EBC-1; assay: cells; settings: for IC50: read-out: Re IC50
From the text: (§1) Details of the initial cell plating procedure are described in Table 3.
(§2) Data Details for Tables 5 and 6. Inhibition %=(Max−Sample value)/(Max−Min)*100.
(§3) The IC50 curves were generated by 4 Parameter Logistic Model—Sigmoidal Dose-Response Model as follows: Y=Bottom+(Top−Bottom)/(1+10^((log EC50-X)*HillSlope)).

[2] = test system: HCC1806; assay: cells; settings: for IC50: read-out: Re IC50
From the text: as §1, §2, §3

[3] = test system: HCT15; assay: cells; settings: for IC50: read-out: Re IC50
From the text: as §1, §2, §3

[4] = test system: HT1080; assay: cells; settings: for IC50: read-out: Re IC50
From the text: as §1, §2, §3

[5] = test system: HT29; assay: cells; settings: for IC50: read-out: Re IC50
From the text: as §1, §2, §3

[6] = test system: MDA-MB-231; assay: cells; settings: for IC50: read-out: Re IC50
From the text: as §1, §2, §3

[7] = test system: MOLP-8; assay: cells; settings: for IC50: read-out: Re IC50
From the text: as §1, §2, §3

[8] = test system: NCI-H1975; assay: cells; settings: for IC50: read-out: Re IC50
From the text: as §1, §2, §3

[9] = test system: NCI-H292; assay: cells; settings: for IC50: read-out: Re IC50
From the text: as §1, §2, §3

[10] = test system: PC-3; assay: cells; settings: for IC50: read-out: Re IC50
From the text: as §1, §2, §3

[11] = test system: SNU-16; assay: cells; settings: for IC50: read-out: Re IC50
From the text: as §1, §2, §3

[12] = test system: HT1080 cells; assay: Cytotoxicity in HT1080 cells in presence and absence of 1 mM bacitracin (ATPlite, 24 hour exposure)
Description: HT1080 cells (ATCC, via LGC, BIC918) Maintained in EMEM media (Sigma M2279)+10% FBS (Sigma Code F7524)+4 mM L-Glu (Invitrogen Cat 25030-024)
I-1a and Toxins with Bacitracin—24 or 72 Hour Exposure in 96 Well Plates
DB seeded cells in normal media, 75 μL in 96 well clear plates, ˜24 hours previous.
HT1080—7.5 k cells/well: 50% confluent upon dosing.
Dilute in media 1:42.85=5 μL DMSO dilute+209 μL media=>use 15 μL per well
This gives a 5 μM top concentration for BDCs in assay
Add 10 µL of media±bacitracin (2 plates of each)−leave for 1 hr
(§4) Bacitracin=1 mM final concentration. This requires a 10 mM concentration with no DMSO.
Add 15 μL treatment per well as in Table 19, below.
Seal plates with gas permeable membrane and incubate at 37° C.
Washout HT1080 plates with 2×150 μL PBS at 24 h and add 100 μL fresh media
At t=72 h, equilibrate ATPlite reagent to room temperature. Add 10 ml buffer to each vial of lyophilized substrate. Add 100 μL reagent per well. Seal with PCR seal and cover to protect from light. Shake for 20 mins before reading luminescence

[13] = test system: L540 cells; assay: Cytotoxicity in L540 cells in presence and absence of 1 mM bacitracin (ATPlite, 72 hour exposure); assay type: cell-based
Description: L540 cells (DSMZ # ACC72, BIC5121), maintained in RPMI-1640 medium (Sigma # R8758)+20% heat-inactivated serum
L540—20 k cells/well: 40% confluent upon dosing.
as §4
Add 100 μL reagent per well. […] Shake for 20 mins before reading luminescence

[14] = test system: HT1080 cells; assay: HT1080 cytotoxicity (ATPLite) in presence or absence of excess binding or non-binding peptide; assay type: cell-based; settings: for IC50: mean ± standard deviation
Description: The target dependence of cytotoxicity of I-1a in cell lines expressing or lacking MT1-MMP was assessed by measuring ATP levels in an endpoint assay after 24 hours exposure to toxin, in the presence or absence of an excess of binding peptide or non-binding control peptide.
HT1080 cells were seeded in 96 well plates (75 μL/well) and incubated overnight at 37° C.+5% CO2. The next day, peptides were prepared in buffer from a DMSO stock. 10 μL of buffer or peptide was added to the cells and incubated for 1 hour. Toxins were diluted in cell culture media and 15 μL/well was added to the cells (<0.5% final DMSO). Cells were approximately 30-50% confluent upon dosing. Plates were sealed with gas permeable seals and incubated for 24 hours at 37° C.+5% CO2. After 24 hours, media was removed, cells were washed with PBS and 100 μL fresh media was added per well. Cells were incubated for a further 48 hours at 37° C.+5% CO2.
ATPLite reagent (Perkin Elmer) was equilibrated to room temperate and reconstituted in buffer as per the manufacturer's instructions. 100 μL reagent was added per well. Plates were sealed and shaken gently for 20 minutes to ensure complete cell lysis before luminescence was read using a BMG Pherastar. […] Data was analyzed using GraphPad Prism. Non-linear regression fit was used to calculate an IC50 for each toxic agent: Y=Bottom+(Top−Bottom)/(1+10^((Log IC50-X)*HillSlope)).

[15] = test system: 11 tumor cell lines; assay: 11 cancer cell line panel cytotoxicity, statements on the whole panel; settings: 72 h, read-out: IC50 on all 11 tumor cell lines
From the text: as §1, §2, §3

`CC[C@H](C)[C@@H]([C@@H](CC(=O)N1CCC[C@H]1[C@H](OC)[C@@H](C)C(=O)N[C@H](C)[C@@H](O)c1ccccc1)OC)N(C)C(=O)[C@@H](NC(=O)[C@@H](NC)C(C)C)C(C)C` [MMAE, monomethyl auristatin E] (H-[NMeV]V[Dil][Dolaproine]-X1) was tested, and the Top inhibition% ([1]; EBC-1, 72 hours) was 67%, the IC50 ([1]; EBC-1, 72 hours) was 0.35 nM and the Top inhibition% ([2]; HCC1806, 72 hours) was 91%. It also gave an IC50 ([2]; HCC1806, 72 hours) of 0.26 nM, a Top inhibition% ([3]; HCT15, 72 hours) of 100% and an IC50 ([3]; HCT15, 72 hours) of 21.4 nM. For the same compound, the Top inhibition% ([4]; HT1080, 72 hours) was 97%, the IC50 ([4]; HT1080, 72 hours) was 0.68 nM and the Top inhibition% ([5]; HT29, 72 hours) was 81%. The IC50 ([5]; HT29, 72 hours) was 0.42 nM, the Top inhibition% ([6]; MDA-MB-231, 72 hours) was 61% and the IC50 ([6]; MDA-MB-231, 72 hours) was 0.62 nM. It also gave a Top inhibition% ([7]; MOLP-8, 72 hours) of 93%, an IC50 ([7]; MOLP-8, 72 hours) of 0.65 nM and a Top inhibition% ([8]; NCI-H1975, 72 hours) of 65%. The IC50 ([8]; NCI-H1975, 72 hours) was 0.38 nM, the Top inhibition% ([9]; NCI-H292, 72 hours) was 86% and the IC50 ([9]; NCI-H292, 72 hours) was 0.34 nM. The Top inhibition% ([10]; PC-3, 72 hours) was 58%, the IC50 ([10]; PC-3, 72 hours) was 0.85 nM and the Top inhibition% ([11]; SNU-16, 72 hours) was 99%. The IC50 ([11]; SNU-16, 72 hours) was 0.18 nM, the IC50 ([12]; read-out: IC50 with 1 mM bacitracin, 24 hour exposure, + 1 mM bacitracin (PDI inhibitor)) was 0.15 nM and the IC50 ([12]; read-out: Standard IC50, 24 hour exposure (high MT1 expression), no block) was 0.083 nM. For the same compound, the IC50 ([13]; 72 hour exposure (low/no MT1 expression), no block, read-out: Standard IC50) was 0.49 nM, the IC50 ([13]; read-out: IC50 with 1 mM bacitracin, 72 hour exposure, + 1 mM bacitracin) was 0.28 nM and the IC50 ([14]; 24 hours exposure, No block, 3 repeats) was 0.06 nM. The Maximum kill ([14]; +250 μM binding peptide) was 95%, the IC50 ([14]; +250 μM binding peptide) was 0.05 nM and the Maximum kill ([14]; +250 μM non-binding peptide) was 95%. For the same compound, the IC50 ([14]; +250 μM non-binding peptide) was 0.05 nM and the Maximum kill ([14]; No block, compared to a lysis control) was 95%.
`CCc1c2c(nc3ccc(O)cc13)-c1cc3c(c(=O)n1C2)COC(=O)[C@]3(O)CC` [SN38] gave a Top inhibition% ([1]; EBC-1, 72 hours) of 87%, an IC50 ([1]; Homo sapiens, EBC-1, 72 h) of 2.34 nM and a Top inhibition% ([2]; HCC1806, 72 hours) of 96%. The IC50 ([2]; Homo sapiens, HCC1806, 72 h) was 4.69 nM, the Top inhibition% ([3]; HCT15, 72 hours) was 80% and the IC50 ([3]; Homo sapiens, HCT-15, 72 h) was 11.5 nM. It also gave a Top inhibition% ([4]; HT1080, 72 hours) of 96%, an IC50 ([4]; Homo sapiens, HT-1080, 72 h) of 1.35 nM and a Top inhibition% ([5]; HT29, 72 hours) of 98%. It also gave an IC50 ([5]; Homo sapiens, HT-29, 72 h) of 23.7 nM, an IC50 ([6]; Homo sapiens, MDA-MB-231, 72 h) of 25.1 nM and a Top inhibition% ([6]; MDA-MB-231, 72 hours) of 78%. For the same compound, the IC50 ([7]; Homo sapiens, MOLP-8, 72 h) was 3.59 nM, the Top inhibition% ([7]; MOLP-8, 72 hours) was 88% and the IC50 ([8]; Homo sapiens, NCI-H1975, 72 h) was 272 nM. The Top inhibition% ([8]; NCI-H1975, 72 hours) was 116%, the IC50 ([9]; Homo sapiens, NCI-H292, 72 h) was 3.48 nM and the Top inhibition% ([9]; NCI-H292, 72 hours) was 92%. For the same compound, the IC50 ([10]; Homo sapiens, PC-3, 72 h) was 48.7 nM, the Top inhibition% ([10]; PC-3, 72 hours) was 78% and the IC50 ([11]; Homo sapiens, SNU-16, 72 h) was 2.14 nM. For the same compound, the Top inhibition% ([11]; SNU-16, 72 hours) was 76% and the IC50 [15] was less than 300 nM.
